What was measured:
p38-alpha kinase = p38-alpha kinase (Homo sapiens, UniProt Q16539); conditions: time-dependent if IC50 values decrease with reaction time (more than two-fold in four hours)
Description: This dilution can be done automatically on a Tecan (or similar) robotic workstation or performed manually. • 3. […] This step can be performed automatically on a Tecan (or similar) robotic workstation or performed manually. • 4. Incubate at 30° C. or room temp for 2 h, depending on protein stability. • 5. Read at emission wavelength 420 nm upon excitation at 340 nm.

c-Abl kinase [1] = target: T1, c-Abl kinase (Homo sapiens, UniProt P00519); assay: Fluorescence affinity assay for Abl kinase (PD 166326 fluoroprobe); format: binding; conditions: read-out: EC50 for accelerating the binding of fluoroprobe PD 166326; c-Abl kinase; early time-point binding
T1 construct: other: c-Abl kinase
Description: (§1) Tris buffer: 90 mM Tris-HCl buffer, pH 7.5, containing 0.2% octyl-glucoside • 4. […] Polarstar Optima plate reader (BMG) or equivalent
(§2) B. Procedure: • 1. Make Solution A containing 80 nM Abl in the Tris buffer • 2. Serially dilute test compounds in Solution A (50 uL per well) • 3. Incubate the plate at room temp for 0.5 h • 4.
(§3) Abl kinase was preincubated with test compounds for […] in the absence of fluoroprobe. […] By comparison of RFU (relative fluorescence units) values with that of a control (in the absence of small molecule modulators), the percentage of modulation at each concentration of the small molecules was calculated.

Abl kinase = assay: Thermal denaturation of Abl kinase; format: binding, human; conditions: 1 μM Abl kinase, 20 μM small molecule
Description: (§4) Denaturation was monitored by measuring the absolute absorbance of the solutions at an appropriate wavelength (typically 230 nm and 240 nm) as a function of temperature. As the protein became denatured, additional UV absorbing functional groups became exposed causing an increase in absorbance at the melting temperature. […] The thermal data were collected using Agilent spectrophotometers and ChemStation UV/Vis Thermal Denaturation software.
5 μL of 40 μM Abl kinase was mixed with 195 μL of the small molecule/buffer solution. The final concentration was 1 μM Abl kinase and 20 μM small molecule. The final protein and buffer solution was mixed gently using a pipetter to minimize denaturing due to over aggressive mixing. The final solution was transferred to a 50 μL cuvette for analysis.
Test solutions containing only the Abl kinase were prepared as follows: 5 μL of 40 μM Abl kinase was mixed with 195 μL Buffer to give a concentration of 1 μM Abl kinase in Buffer. The protein and buffer solution was mixed gently using a pipetter to minimize denaturing due to over aggressive mixing. The final solution was transferred to a 50 μL cuvette for analysis.
(§5) A first derivative calculation with data smoothing was applied to the resulting data to report the point of inflection as the melting temperature.

c-Abl kinase [2] = assay: Fluorescence affinity assay for Abl kinase (PD 166326 fluoroprobe); format: binding, human; conditions: 100 nM PD 166326, 40 nM Abl kinase
Description: as §1, §2, §3

V599E Braf kinase = target: T2, V599E Braf kinase (Homo sapiens, UniProt P15056, V600E); assay: Thermal denaturation of oncogenic V599E Braf kinase; format: binding; conditions: 1.4 μM V599E Braf kinase, 20 μM small molecule; read-out: ΔTm (° C.) relative to unphosphorylated B-Raf(V599E)
T2 construct: 6×His-tag (N); made in house; host or cells: Sf9 insect cells (baculovirus)
Description: as §4
(§6) The final solution was transferred to a 50 μL cuvette for analysis.
as §6, §5

[3] = target: T3, doubly phosphorylated p38-alpha kinase (Homo sapiens, UniProt Q16539); assay: Thermal denaturation of doubly phosphorylated p38-alpha kinase; format: binding; conditions: 0.5 μM p38-alpha kinase, 20 μM small molecule
T3 construct: 6xHis ([…], seen only in the listing) (C); purchased Roche Applied Diagnostics
Description: as §4
The final concentration was 0.5 μM p38-alpha kinase and 20 μM small molecule. The final protein and buffer solution was mixed gently using a pipetter to minimize denaturing due to over aggressive mixing. The final solution was transferred to a 50 μL cuvette for analysis.
The protein and buffer solution was mixed gently using a pipetter to minimize denaturing due to over aggressive mixing. The final solution was transferred to a 50 μL cuvette for analysis.
as §5

Phospho-p38-alpha kinase = target: T4, Phospho-p38-alpha kinase (Homo sapiens, UniProt Q16539); assay: Spectrophotometric assay for phospho-p38-alpha kinase; conditions: p38-alpha kinase biochemical assay
T4 construct: 6xHis ([…], seen only in the listing) (C); purchased Roche Applied Diagnostics
Description: Spectrophotometric Assay for Phospho-p38-alpha Kinase
NADH (Sigma): 5.6 mM • 5. Phosphoenol pyruvate (Sigma): 20 mM • 6. […] ATP (20 mM) • 8. […] Polarstar Optima plate reader (BMG)
IC50 determinations were performed using a serial dilution scheme to dilute inhibitor in DMSO, followed by further dilution in reaction buffer, and finally mixing with Mixture 1 (Table 29) which contains all the enzymes. The dilution procedure ensured that the test compound at various concentrations was properly dissolved into the buffer and enzyme reaction mixture.
Prepare Mixture 1 as described in Table 29 (use within 30 min) • 3. Mix the diluted compound with Mixture 1 following Step 3 of Table 28 • 4. Incubate the 384-well plate at 30° C. for 2 hours • 5. Add 1 μL of 30 mM ATP into each well and mix well • 6. Read on the microplate reader with one point every min for at least 2.5 hours at 30° C.
A linear regression was applied to data collected from t=1.5 hr to 2.5 hr to obtain the reaction rate for each data set. The data were approximately linear within this time frame. Percentage of inhibition was calculated by comparison of the rate in the presence of a compound with that of the control. IC50 values were calculated from a series of % inhibition values determined at a range of inhibitor concentrations using GraphPad Prism (version 4).

[4] = target: T5, unphosphorylated p38-alpha kinase (Homo sapiens, UniProt Q16539, DEL261-261); assay: Thermal denaturation of unphosphorylated p38-alpha kinase; format: binding; conditions: […] p38-alpha kinase, 15 μM small molecule
T5 construct: 48 (6×His-TEV tag, full length); 6×His-TEV tag (N); purchased Decode Genetics, Inc; host or cells: E. coli
Excerpt: as §4
The final protein and buffer solution was mixed gently using a pipetter to minimize denaturing due to over aggressive mixing. The final solution was transferred to a 50 μL cuvette for analysis.
as §6, §5

[5] = target: T5, unphosphorylated p38-alpha kinase; assay: Fluorescence affinity assay, unphosphorylated p38-alpha kinase; format: binding
Excerpt: (§7) This fluorescence affinity assay is utilized in an affinity-based screen to identify small molecules which bind into switch control pockets of protein kinases. Binding of small molecule switch inhibitors displaces the switch control ligand phenylalanine of the DFG motif into an orientation which sterically blocks the ATP pocket. Such inhibitor-induced blockade of the ATP pocket is registered as an inhibition of binding of the fluoroprobe into the ATP pocket.
(§8) • 1. p38-alpha kinase • a. […] Polarstar Optima plate reader (BMG)
(§9) • 1. […] This dilution can be done automatically on a Tecan (or similar) robotic workstation or performed manually. • 3. Mix Solution A with the diluted compound solutions following Step 3 of Table 22. This step can be performed automatically on a Tecan (or similar) robotic workstation or performed manually. • 4. Incubate at 30° C. or room temp for 2 h, depending on protein stability. • 5. Read at emission wavelength 420 nm upon excitation at 340 nm.
The reaction was initiated by addition of the enzyme. […] By comparison of RFU (relative fluorescence units) values with that of a control (in the absence of small molecule modulators), the percentage of inhibition at each concentration of the small molecules was calculated. IC50 values for the small molecule modulators were calculated from the % inhibition values obtained at a range of concentrations of the small molecule modulators using Prism (available from GraphPad, Inc.). When time-dependent inhibition was assessed, the plate was read at multiple reaction times such as 0.5, 1, 2, 3, 4 and 6 hours. The IC50 values were calculated at each time point. An inhibition was assigned as time-dependent if the IC50 values decrease with the reaction time (more than two-fold in four hours).
(§10) A ratio greater than 1.0 indicates a preference for inhibiting the unphosphorylated form of p38-alpha kinase relative to the doubly phosphorylated form. A ratio less than 1.0 indicates a preference for inhibiting the doubly phosphorylated form of p38-alpha kinase relative to the unphosphorylated form.

[6] = target: T3, doubly phosphorylated p38-alpha kinase; assay: Fluorescence affinity assay, doubly phosphorylated p38-alpha kinase; format: binding; conditions: ~24 nM enzyme; 1.0 uM SKF-86002; read-out: FP IC50 P-p38-alpha
Excerpt: as §7, §8
as §9, with “nm. […]” for “nm.”
as §10

T1 sequence (P00519 1-1149 isoform P00519-2): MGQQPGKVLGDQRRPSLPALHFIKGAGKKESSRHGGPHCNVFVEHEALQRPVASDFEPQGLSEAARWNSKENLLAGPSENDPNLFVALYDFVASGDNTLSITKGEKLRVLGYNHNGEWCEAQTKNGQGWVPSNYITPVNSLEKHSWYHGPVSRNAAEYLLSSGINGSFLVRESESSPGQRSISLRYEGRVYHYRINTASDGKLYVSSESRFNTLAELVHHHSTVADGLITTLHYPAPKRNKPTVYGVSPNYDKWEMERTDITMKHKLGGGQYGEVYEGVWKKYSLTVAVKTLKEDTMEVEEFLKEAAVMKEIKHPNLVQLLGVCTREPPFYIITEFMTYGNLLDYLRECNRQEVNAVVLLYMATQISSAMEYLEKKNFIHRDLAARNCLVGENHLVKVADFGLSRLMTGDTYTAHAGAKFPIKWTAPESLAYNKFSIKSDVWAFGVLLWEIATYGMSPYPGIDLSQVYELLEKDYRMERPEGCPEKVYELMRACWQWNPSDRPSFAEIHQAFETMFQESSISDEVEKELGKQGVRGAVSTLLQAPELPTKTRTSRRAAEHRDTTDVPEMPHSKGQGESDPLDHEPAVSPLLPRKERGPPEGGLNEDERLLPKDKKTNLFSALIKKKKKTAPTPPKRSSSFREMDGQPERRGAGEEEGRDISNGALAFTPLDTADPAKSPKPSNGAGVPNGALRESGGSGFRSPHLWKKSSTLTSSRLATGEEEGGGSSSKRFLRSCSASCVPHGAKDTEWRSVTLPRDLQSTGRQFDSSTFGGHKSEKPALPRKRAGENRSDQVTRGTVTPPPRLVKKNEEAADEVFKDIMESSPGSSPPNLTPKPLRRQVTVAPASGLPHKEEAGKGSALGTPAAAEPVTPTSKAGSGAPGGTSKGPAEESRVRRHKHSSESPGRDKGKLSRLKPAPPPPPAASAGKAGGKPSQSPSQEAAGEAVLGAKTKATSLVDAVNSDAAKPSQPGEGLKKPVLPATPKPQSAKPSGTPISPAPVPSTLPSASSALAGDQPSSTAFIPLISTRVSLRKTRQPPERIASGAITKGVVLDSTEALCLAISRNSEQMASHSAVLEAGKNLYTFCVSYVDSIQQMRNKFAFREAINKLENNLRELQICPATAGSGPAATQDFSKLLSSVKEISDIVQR
T5 sequence (Q16539 with tags, fused parts or gaps DEL261-261): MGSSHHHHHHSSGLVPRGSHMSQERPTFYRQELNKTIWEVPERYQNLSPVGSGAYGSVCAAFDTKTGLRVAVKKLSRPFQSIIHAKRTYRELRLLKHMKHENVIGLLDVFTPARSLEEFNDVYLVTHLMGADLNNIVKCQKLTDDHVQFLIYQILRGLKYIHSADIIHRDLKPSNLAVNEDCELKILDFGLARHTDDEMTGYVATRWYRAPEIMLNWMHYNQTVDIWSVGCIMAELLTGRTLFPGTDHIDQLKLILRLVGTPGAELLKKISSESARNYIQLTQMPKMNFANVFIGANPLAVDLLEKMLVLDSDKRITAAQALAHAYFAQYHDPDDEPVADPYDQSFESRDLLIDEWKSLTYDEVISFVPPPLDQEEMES
T3 sequence (Q16539 with tags, fused parts or gaps): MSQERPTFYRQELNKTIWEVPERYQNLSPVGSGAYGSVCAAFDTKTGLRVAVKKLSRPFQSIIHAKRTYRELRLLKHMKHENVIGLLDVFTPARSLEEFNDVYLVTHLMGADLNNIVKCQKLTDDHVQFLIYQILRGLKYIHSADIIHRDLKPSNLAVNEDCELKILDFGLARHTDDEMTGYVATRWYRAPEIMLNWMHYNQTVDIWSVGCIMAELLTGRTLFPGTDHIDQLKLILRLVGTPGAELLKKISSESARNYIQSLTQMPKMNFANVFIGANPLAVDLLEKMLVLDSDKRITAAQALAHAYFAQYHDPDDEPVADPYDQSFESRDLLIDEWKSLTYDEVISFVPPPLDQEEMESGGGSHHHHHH
T2 sequence (P15056 with tags, fused parts or gaps V600E): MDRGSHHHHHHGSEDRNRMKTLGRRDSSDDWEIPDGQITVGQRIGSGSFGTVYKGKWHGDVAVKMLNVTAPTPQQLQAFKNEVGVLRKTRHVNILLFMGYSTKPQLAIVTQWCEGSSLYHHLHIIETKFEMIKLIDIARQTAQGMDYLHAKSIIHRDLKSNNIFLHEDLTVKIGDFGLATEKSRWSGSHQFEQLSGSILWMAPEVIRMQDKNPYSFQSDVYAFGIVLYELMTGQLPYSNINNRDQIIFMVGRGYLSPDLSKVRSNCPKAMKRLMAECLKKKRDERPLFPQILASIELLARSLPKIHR
Chain of p38-alpha kinase (Q16539 whole entry): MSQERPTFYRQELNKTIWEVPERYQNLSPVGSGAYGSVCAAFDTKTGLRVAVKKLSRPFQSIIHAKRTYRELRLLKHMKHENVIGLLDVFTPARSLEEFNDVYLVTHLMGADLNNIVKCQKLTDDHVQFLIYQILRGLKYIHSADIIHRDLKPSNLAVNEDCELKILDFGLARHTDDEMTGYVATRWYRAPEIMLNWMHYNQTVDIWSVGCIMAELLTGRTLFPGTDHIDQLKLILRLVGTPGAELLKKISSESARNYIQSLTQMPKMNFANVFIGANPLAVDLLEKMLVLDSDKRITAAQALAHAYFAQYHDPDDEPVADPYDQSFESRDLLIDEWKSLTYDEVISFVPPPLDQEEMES
T4 sequence (Q16539 with tags, fused parts or gaps): as the sequence (Q16539 with tags, fused parts or gaps) above

## CC(C)(C)c1cc(NC(=O)Nc2cccc3ccccc23)n(-c2ccc(CN)cc2)n1 [Example 45]
p38-alpha kinase
  Time-dependent: No

## CC(C)(C)c1cc(NC(=O)Nc2cccc(Cl)c2Cl)n(-c2ccc3c(c2)CNCC3)n1 [Example 64, 1-(3-tert-butyl-1-(1,2,3,4-tetrahydroisoquinolin-7-yl)-1H-pyrazol-5-yl)-3-(2,3-dichlorophenyl)urea]
c-Abl kinase [1]
  EC50: 43 nM
Abl kinase
  ΔTm (° C.) relative to unphosphorylated Abl: 2.6 °C

## CC(C)(C)c1cc(NC(=O)Nc2cccc(Cl)c2Cl)n(-c2ccc3c(c2)C[C@@H](C(=O)O)NC3)n1 [Example 65, (3S)-6-(3-tert-butyl-5-(3-(2,3-dichlorophenyl)ureido)-1H-pyrazol-1-yl)-1,2,3,4-tetrahydroisoquinoline-3-carboxylic acid]
c-Abl kinase [1]
  EC50: 81 nM

## CC(C)(C)c1cc(NC(=O)Nc2cccc(Cl)c2Cl)n(-c2ccc3c(c2)CCNC3)n1 [Example 66, 1-(3-tert-butyl-1-(1,2,3,4-tetrahydroisoquinolin-6-yl)-1H-pyrazol-5-yl)-3-(2,3-dichlorophenyl)urea]
c-Abl kinase [1]
  EC50: 30 nM
c-Abl kinase [2]
  Effect on binding of fluoroprobe PD 166326 to Abl kinase: concentration-dependent acceleration of the binding of fluoroprobe PD 166326
V599E Braf kinase
  ΔTm at 20 µM: 15.8 °C
Abl kinase
  ΔTm (° C.) relative to unphosphorylated Abl: 3.2 °C

## CC(C)(C)c1cc(NC(=O)Nc2cccc3ccccc23)n(-c2ccc(CO)cc2)n1 [Example 72]
[3]
  ΔTm (° C.) relative to doubly phosphorylated p38: 8.1 °C
Phospho-p38-alpha kinase
  Competition with ATP: non-competitive with ATP
[4]
  ΔTm (° C.) relative to unphosphorylated apo p38: 11.3 °C
[5]; doubly phosphorylated vs unphosphorylated p38-alpha, >1.0 = preference for unphosphorylated form
  Ratio IC50s: 1.7
[5]; ~24 nM enzyme, 1.0 uM SKF-86002, read-out: FP IC50 U-p38-alpha
  IC50: 40 nM
[6]
  IC50: 67 nM
